Assay results: ChEMBL document CHEMBL6103573, “Discovery of novel thienopyridine indole derivatives as inhibitors of tubulin polymerization targeting the colchicine-binding site with potent anticancer activities” (Eur J Med Chem, 2025); call rule not given here

Tests used:
KYSE-450 = test: Antiproliferative activity against human KYSE-450 cells assessed as inhibition of cell proliferation incubated for 48 hrs by MTT assay; type: functional, cell-based; conditions: KYSE-450, 48 h
HCT-116 = test: Antiproliferative activity against human HCT-116 cells assessed as inhibition of cell proliferation incubated for 48 hrs by MTT assay; type: functional, cell-based; conditions: HCT-116, 48 h
MGC-803 [1] = test: Antiproliferative activity against human MGC-803 cells assessed as inhibition of cell proliferation incubated for 48 hrs by MTT assay; type: functional, cell-based; conditions: MGC-803, 48 h
Tubulin (Homo sapiens) = Tubulin (Homo sapiens) (UniProt P68371+Q9H4B7+P0DPH7+P68366+Q13509+Q71U36+P04350+Q3ZCM7+P07437+P68363+Q9BQE3+Q6PEY2+Q13885+Q9BVA1+Q9BUF5); test: Inhibition of tubulin (unknown origin) polymerization assessed as decrease in fluorescence intensity at 3 micromol/L in the presence of GTP by fluorescence microplate reader; type: protein-complex assay; conditions: dose 3.0 µmol/L
MGC-803 [2] = test: Antitumor activity against human MGC-803 cells xenografted in female BALB/c-nu nude mouse assessed as tumor inhibition rate at 20 mg/kg, ip administrated every other day for 11 times and measured after 21 days relative to control; type: functional; conditions: MGC-803, 504 h, time 21 day, read-out: TGI

CC(C)(C)OC(=O)n1ccc2cc(Nc3nc(Cl)nc4sccc34)ccc21
IC50 (KYSE-450): > 5000 nM
IC50 (HCT-116): > 5000 nM
IC50 (MGC-803 [1]): > 5000 nM

CN(c1ccc2c(ccn2C)c1)c1ncnc2ccsc12
IC50 (KYSE-450): 34.6 nM
IC50 (HCT-116): 17.6 nM
IC50 (MGC-803 [1]): 8.94 nM

CN(c1ccc2c(ccn2C)c1)c1nc(N2CCC(O)CC2)nc2sccc12
IC50 (KYSE-450): 30.1 nM
IC50 (HCT-116): 19.6 nM
IC50 (MGC-803 [1]): 20.6 nM

CN(c1ccc2c(ccn2C)c1)c1ncnc2sccc12
IC50 (KYSE-450): 25.1 nM
IC50 (HCT-116): 5.12 nM
IC50 (MGC-803 [1]): 5.32 nM

COC1CCN(c2nc(N(C)c3ccc4c(ccn4C)c3)c3ccsc3n2)CC1
IC50 (KYSE-450): 8.33 nM
IC50 (HCT-116): 6.77 nM
IC50 (MGC-803 [1]): 6.81 nM

CCCN(c1ccc2c(ccn2C)c1)c1nc(Cl)nc2sccc12
IC50 (KYSE-450): 122 nM
IC50 (HCT-116): 125 nM
IC50 (MGC-803 [1]): 89.2 nM

CN(c1ccc2c(ccn2C)c1)c1nc(N2CCC(C(=O)OC(C)(C)C)CC2)nc2sccc12
IC50 (KYSE-450): 422 nM
IC50 (HCT-116): 388 nM
IC50 (MGC-803 [1]): 337 nM

CN(c1ccc2c(ccn2C)c1)c1nc(Cl)nc2ccsc12
IC50 (KYSE-450): 16.1 nM
IC50 (HCT-116): 3.17 nM
IC50 (MGC-803 [1]): 4.18 nM

CCN1CCN(c2nc(N(C)c3ccc4c(ccn4C)c3)c3ccsc3n2)CC1
IC50 (KYSE-450): 402 nM
IC50 (HCT-116): 406 nM
IC50 (MGC-803 [1]): 288 nM

CC(=O)O[C@H]1C(=O)[C@@]2(C)[C@H]([C@H](OC(=O)c3ccccc3)[C@]3(O)C[C@H](OC(=O)[C@H](O)[C@@H](NC(=O)c4ccccc4)c4ccccc4)C(C)=C1C3(C)C)[C@]1(OC(C)=O)CO[C@@H]1C[C@@H]2O
inhibition (Tubulin (Homo sapiens)): Not active; Increase In Fluorescence Intensity Observed

CN(c1ccc2c(ccn2C)c1)c1nc(Cl)nc2sccc12
IC50 (KYSE-450): 3.28 nM
IC50 (HCT-116): 2.79 nM
IC50 (MGC-803 [1]): 2.07 nM

Cn1ccc2cc(Nc3ncnc4sccc34)ccc21
IC50 (KYSE-450): > 5000 nM
IC50 (HCT-116): > 5000 nM
IC50 (MGC-803 [1]): > 5000 nM

CN1CCN(c2nc(N(C)c3ccc4c(ccn4C)c3)c3ccsc3n2)CC1
IC50 (KYSE-450): 389 nM
IC50 (HCT-116): 441 nM
IC50 (MGC-803 [1]): 219 nM

CCN(c1ccc2c(ccn2C)c1)c1nc(Cl)nc2sccc12
IC50 (KYSE-450): 7.77 nM
IC50 (HCT-116): 8.28 nM
IC50 (MGC-803 [1]): 3.67 nM

CN(c1ccc2[nH]ccc2c1)c1nc(Cl)nc2sccc12
IC50 (KYSE-450): 5.12 nM
IC50 (HCT-116): 7.28 nM
IC50 (MGC-803 [1]): 4.23 nM

CN(c1ccc2c(ccn2C)c1)c1nc(N2CCN(C(=O)OC(C)(C)C)CC2)nc2sccc12
IC50 (KYSE-450): 597 nM
IC50 (HCT-116): 682 nM
IC50 (MGC-803 [1]): 589 nM

Cn1ccc2cc(Nc3nc(Cl)nc4ccsc34)ccc21
IC50 (KYSE-450): > 5000 nM
IC50 (HCT-116): > 5000 nM
IC50 (MGC-803 [1]): > 5000 nM

Cn1ccc2cc(Nc3nc(Cl)nc4sccc34)ccc21
IC50 (KYSE-450): > 5000 nM
IC50 (HCT-116): > 5000 nM
IC50 (MGC-803 [1]): > 5000 nM

CN(c1ccc2c(ccn2C)c1)c1nc(N2CCSCC2)nc2sccc12
IC50 (KYSE-450): 289 nM
IC50 (HCT-116): 129 nM
IC50 (MGC-803 [1]): 113 nM

CN(c1ccc2c(ccn2C)c1)c1nc(N2CCC(Cl)CC2)nc2sccc12
IC50 (KYSE-450): 25.6 nM
IC50 (HCT-116): 29.3 nM
IC50 (MGC-803 [1]): 18.3 nM

CN(c1ccc2c(ccn2C)c1)c1nc(N2CCCCC2)nc2sccc12
IC50 (KYSE-450): 13.2 nM
IC50 (HCT-116): 18.2 nM
IC50 (MGC-803 [1]): 14.8 nM

CC(=O)N1CCN(c2nc(N(C)c3ccc4c(ccn4C)c3)c3ccsc3n2)CC1
IC50 (KYSE-450): 413 nM
IC50 (HCT-116): 487 nM
IC50 (MGC-803 [1]): 308 nM

COc1ccc(/C=C\c2cc(OC)c(OC)c(OC)c2)cc1O [COMBRETASTATIN A4]
IC50 (KYSE-450): 5.11 nM
IC50 (HCT-116): 7.38 nM
IC50 (MGC-803 [1]): 6.29 nM
inhibition in vivo at 20 mg/kg (MGC-803 [2]): 27.1%

CC1CCN(c2nc(N(C)c3ccc4c(ccn4C)c3)c3ccsc3n2)CC1
IC50 (KYSE-450): 9.17 nM
IC50 (HCT-116): 6.21 nM
IC50 (MGC-803 [1]): 8.12 nM

COc1cc2c(c(OC)c1OC)-c1ccc(OC)c(=O)cc1[C@@H](NC(C)=O)CC2 [COLCHICINE]
IC50 (KYSE-450): 58.7 nM
IC50 (HCT-116): 49.1 nM
IC50 (MGC-803 [1]): 44.1 nM

CN(c1ccc2c(ccn2C)c1)c1nc(N2CCC(F)CC2)nc2sccc12
IC50 (KYSE-450): 20.7 nM
IC50 (HCT-116): 17.7 nM
IC50 (MGC-803 [1]): 12.9 nM

CCn1ccc2cc(N(C)c3nc(Cl)nc4sccc34)ccc21
IC50 (KYSE-450): 39.8 nM
IC50 (HCT-116): 54.2 nM
IC50 (MGC-803 [1]): 40.2 nM

CN(c1ccc2c(ccn2C(=O)OC(C)(C)C)c1)c1nc(Cl)nc2sccc12
IC50 (KYSE-450): 152 nM
IC50 (HCT-116): 282 nM
IC50 (MGC-803 [1]): 253 nM

CN(c1ccc2c(ccn2C)c1)c1nc(N2CCOCC2)nc2sccc12
IC50 (KYSE-450): 56.4 nM
IC50 (HCT-116): 60.2 nM
IC50 (MGC-803 [1]): 70.7 nM

CN(c1ccc2c(ccn2Cc2ccccc2)c1)c1nc(Cl)nc2sccc12
IC50 (KYSE-450): 921 nM
IC50 (HCT-116): 831 nM
IC50 (MGC-803 [1]): 893 nM

CN(c1ccc2c(ccn2C)c1)c1nc(N2CCC2)nc2sccc12
IC50 (KYSE-450): 16.1 nM
IC50 (HCT-116): 18.2 nM
IC50 (MGC-803 [1]): 12.3 nM

Cn1ccc2cc(Nc3ncnc4ccsc34)ccc21
IC50 (KYSE-450): > 5000 nM
IC50 (HCT-116): > 5000 nM
IC50 (MGC-803 [1]): > 5000 nM
